Legend:
LRRK2^G2019S [1] = biological target: T1, LRRK2^G2019S (Mus musculus, UniProt Q5S006, G2019S); assay: Western blot LRRK2 degradation in LRRK2^G2019S MEFs; type: cell-based; conditions: dose response
T1 construct: endogenous in cells; host or cells: LRRK2[G2019S] mouse embryonic fibroblasts (MEFs)

LRRK2^G2019S [2] = biological target: T1, LRRK2^G2019S; assay: as above; type: cell-based
LRRK2 = LRRK2 (Homo sapiens, UniProt Q5S007); assay: NanoBRET-based ternary binding and cooperativity assay; set-up: host or cells: HEK293 (digitonin-permeabilized); conditions: permeabilized HEK293 cells, without VCB; read-out: IC50 LRRK2 engagement in the absence of VCB
Sequence of LRRK2 (Q5S007 whole entry, the tested form may be a part): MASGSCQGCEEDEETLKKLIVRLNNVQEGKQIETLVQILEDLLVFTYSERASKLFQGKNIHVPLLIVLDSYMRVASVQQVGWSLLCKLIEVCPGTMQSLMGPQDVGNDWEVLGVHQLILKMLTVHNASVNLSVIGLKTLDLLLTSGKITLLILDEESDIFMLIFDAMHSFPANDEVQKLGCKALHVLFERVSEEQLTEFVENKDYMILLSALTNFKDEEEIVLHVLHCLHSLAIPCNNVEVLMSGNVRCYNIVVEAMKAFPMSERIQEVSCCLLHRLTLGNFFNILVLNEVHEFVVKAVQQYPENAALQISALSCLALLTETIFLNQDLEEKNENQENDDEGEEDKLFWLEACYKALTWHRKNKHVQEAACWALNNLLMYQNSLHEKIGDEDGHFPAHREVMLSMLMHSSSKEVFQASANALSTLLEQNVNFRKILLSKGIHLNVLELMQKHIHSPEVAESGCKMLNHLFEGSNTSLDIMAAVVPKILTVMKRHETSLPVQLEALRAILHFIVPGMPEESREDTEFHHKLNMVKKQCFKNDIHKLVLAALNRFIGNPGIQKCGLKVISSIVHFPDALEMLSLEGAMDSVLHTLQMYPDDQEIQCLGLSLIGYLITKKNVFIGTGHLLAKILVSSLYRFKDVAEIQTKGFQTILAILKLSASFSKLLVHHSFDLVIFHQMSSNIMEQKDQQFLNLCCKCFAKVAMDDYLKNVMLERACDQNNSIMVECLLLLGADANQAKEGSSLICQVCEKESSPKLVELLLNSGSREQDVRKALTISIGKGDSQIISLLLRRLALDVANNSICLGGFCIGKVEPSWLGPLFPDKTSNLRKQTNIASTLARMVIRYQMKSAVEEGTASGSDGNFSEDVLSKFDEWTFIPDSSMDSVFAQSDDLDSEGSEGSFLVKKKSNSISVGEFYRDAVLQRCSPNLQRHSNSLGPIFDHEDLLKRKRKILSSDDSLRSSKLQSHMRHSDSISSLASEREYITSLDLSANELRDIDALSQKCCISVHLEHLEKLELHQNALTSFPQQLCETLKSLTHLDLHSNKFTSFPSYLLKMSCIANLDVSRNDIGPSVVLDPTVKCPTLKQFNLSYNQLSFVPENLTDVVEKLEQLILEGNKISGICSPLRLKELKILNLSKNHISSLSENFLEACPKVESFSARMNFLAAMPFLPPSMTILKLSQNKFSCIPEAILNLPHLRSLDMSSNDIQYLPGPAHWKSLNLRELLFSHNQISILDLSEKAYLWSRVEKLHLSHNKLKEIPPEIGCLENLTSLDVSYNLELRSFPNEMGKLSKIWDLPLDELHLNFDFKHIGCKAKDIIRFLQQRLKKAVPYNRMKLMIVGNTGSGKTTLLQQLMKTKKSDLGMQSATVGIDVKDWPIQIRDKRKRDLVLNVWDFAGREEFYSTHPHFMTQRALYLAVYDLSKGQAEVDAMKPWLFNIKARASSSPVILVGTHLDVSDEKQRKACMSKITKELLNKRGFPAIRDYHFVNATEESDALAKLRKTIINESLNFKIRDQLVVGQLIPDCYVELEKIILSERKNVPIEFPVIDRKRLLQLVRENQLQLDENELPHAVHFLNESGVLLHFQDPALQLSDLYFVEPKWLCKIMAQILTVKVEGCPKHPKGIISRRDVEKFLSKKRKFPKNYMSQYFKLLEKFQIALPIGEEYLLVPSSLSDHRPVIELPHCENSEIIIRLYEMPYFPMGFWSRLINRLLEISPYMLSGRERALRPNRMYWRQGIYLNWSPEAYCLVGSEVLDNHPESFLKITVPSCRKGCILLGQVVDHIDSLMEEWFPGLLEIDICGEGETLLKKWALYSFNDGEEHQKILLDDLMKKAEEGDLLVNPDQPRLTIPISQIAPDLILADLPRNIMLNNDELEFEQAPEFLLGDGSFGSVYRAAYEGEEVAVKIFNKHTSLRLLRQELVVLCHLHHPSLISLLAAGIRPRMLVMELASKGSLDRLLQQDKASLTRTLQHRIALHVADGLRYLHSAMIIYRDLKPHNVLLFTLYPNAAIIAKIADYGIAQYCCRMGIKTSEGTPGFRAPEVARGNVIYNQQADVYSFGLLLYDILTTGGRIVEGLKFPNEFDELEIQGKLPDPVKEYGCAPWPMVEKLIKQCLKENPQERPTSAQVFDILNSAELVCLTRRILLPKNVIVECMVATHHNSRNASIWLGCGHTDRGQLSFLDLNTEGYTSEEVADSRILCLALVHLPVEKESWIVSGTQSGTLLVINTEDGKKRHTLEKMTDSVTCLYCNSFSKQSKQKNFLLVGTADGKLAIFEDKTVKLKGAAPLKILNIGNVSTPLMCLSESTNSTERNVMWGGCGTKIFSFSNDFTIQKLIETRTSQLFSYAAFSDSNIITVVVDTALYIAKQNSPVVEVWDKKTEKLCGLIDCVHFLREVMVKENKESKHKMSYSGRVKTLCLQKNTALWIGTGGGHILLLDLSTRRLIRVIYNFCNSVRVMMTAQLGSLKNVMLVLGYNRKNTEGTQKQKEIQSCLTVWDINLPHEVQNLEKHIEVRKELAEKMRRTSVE
Experimental: The HEK293 cells were transfected with LRRK2-NanoLuc fusion vector (Promega, NV3401) following Promega's protocol and seeded into white 384-well plate (Corning3570) at a density of 6000 cells/well. The cells were then treated with 50 μg/mL of digitonin, 125 nM of LRRK2 tracer, testing compounds at decreasing concentrations (11 concentrations with 2-fold serial dilution starting from 10 μM) or testing compounds and VCB mix (11 concentrations with 2-fold serial dilution starting from 10 μM compound for the compound. The first 6 concentrations of VCB start from 32 μM with 2-fold dilution, the last 5 concentrations of VCB keep at 1 μM), and NanoBRET NanoGlo Substrate (Promega) at concentration recommended by the manufacturer's protocol. In the maximum signal control samples (DMSO control), DMSO was added instead of testing compounds. In the minimum signal control samples (no tracer control), DMSO and LRRK2 tracer dilution buffer were used to replace testing compounds and LRRK2 tracer separately. The filtered luminescence was measured within 10 min following addition of the substrate on a PHERAstar (BMG LABTECH) plate reader equipped with a 450-nm bandpass filter (donor) and a 600-nm long pass filter (acceptor). The fractional occupancy was calculated according to the equation: fractional occupancy=(mBRETtesting compound−mBRETno tracer control)/(mBRETDMSO control−mBRETno tracer control).

T1 sequence (Q5S006 whole entry G2019S): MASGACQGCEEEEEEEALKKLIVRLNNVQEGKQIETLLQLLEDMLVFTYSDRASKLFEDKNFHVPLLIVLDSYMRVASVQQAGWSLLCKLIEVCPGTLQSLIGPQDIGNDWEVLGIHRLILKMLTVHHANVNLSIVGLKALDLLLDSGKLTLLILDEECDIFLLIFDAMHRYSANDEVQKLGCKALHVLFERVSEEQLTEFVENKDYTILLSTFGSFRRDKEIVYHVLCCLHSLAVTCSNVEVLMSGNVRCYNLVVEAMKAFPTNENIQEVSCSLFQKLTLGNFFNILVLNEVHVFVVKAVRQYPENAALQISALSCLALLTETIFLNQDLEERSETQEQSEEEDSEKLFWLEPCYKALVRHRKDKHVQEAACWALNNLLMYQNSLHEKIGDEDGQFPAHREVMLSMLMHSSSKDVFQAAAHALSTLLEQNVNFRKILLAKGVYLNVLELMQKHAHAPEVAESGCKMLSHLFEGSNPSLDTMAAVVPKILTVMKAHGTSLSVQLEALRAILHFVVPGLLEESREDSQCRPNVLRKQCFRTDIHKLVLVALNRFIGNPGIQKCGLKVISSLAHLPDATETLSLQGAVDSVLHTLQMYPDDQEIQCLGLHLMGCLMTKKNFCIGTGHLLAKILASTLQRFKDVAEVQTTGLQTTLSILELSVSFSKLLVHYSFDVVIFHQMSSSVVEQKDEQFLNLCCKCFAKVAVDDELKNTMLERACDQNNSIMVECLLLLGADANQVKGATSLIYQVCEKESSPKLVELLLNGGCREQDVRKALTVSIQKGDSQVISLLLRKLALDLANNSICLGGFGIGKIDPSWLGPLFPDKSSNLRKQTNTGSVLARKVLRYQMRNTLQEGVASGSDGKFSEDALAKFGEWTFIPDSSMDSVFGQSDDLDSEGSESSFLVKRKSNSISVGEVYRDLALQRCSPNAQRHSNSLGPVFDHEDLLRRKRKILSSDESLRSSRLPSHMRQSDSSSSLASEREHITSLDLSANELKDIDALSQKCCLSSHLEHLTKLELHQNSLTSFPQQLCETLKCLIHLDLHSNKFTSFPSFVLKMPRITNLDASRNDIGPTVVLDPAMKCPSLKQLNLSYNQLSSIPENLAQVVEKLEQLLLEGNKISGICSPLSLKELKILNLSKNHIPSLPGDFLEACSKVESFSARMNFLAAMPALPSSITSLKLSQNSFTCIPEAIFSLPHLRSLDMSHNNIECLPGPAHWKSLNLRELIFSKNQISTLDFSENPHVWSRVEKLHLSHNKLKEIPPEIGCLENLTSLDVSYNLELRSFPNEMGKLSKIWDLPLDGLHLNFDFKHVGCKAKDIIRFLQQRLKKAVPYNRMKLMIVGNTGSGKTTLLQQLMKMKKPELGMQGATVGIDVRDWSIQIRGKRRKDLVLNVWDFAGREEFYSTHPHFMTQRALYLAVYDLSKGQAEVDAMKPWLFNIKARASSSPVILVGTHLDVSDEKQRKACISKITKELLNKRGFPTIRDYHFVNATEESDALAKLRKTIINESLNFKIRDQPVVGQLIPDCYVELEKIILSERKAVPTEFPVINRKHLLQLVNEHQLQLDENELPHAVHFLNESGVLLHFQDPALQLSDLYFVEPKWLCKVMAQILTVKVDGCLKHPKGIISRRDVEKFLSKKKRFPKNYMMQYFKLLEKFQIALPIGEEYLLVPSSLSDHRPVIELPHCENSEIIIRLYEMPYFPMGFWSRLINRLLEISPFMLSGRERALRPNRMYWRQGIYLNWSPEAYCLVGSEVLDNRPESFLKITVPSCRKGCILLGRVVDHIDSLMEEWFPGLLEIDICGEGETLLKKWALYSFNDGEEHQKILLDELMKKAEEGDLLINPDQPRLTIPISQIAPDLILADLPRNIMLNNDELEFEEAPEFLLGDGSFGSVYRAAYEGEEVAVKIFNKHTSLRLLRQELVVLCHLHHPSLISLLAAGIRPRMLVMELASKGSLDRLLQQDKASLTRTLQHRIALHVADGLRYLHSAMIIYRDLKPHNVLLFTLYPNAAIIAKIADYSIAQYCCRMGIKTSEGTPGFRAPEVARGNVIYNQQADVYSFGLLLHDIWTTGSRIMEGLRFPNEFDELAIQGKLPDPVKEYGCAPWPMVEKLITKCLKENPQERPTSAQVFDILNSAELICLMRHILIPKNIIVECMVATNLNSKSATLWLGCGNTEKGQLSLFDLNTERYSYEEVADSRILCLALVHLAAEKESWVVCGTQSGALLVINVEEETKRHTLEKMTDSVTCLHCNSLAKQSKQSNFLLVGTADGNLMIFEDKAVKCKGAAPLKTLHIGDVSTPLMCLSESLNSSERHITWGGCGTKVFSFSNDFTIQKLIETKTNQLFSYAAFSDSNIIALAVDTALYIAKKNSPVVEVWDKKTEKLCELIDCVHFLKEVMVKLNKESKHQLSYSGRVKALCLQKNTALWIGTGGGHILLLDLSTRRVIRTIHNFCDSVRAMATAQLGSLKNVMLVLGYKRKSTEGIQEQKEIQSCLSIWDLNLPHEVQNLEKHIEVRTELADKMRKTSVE

SMILES	Dmax on G2019S MEFs (LRRK2^G2019S [1]; 24 h treatment)	T1/2 of LRRK2^G2019S degradation (LRRK2^G2019S [2]; time course at 1000 nM)	IC50 (LRRK2)	DC50 (LRRK2^G2019S [1]; 4 h treatment)	Dmax on G2019S MEFs (LRRK2^G2019S [1]; 4 h treatment)	Dmax at 0.3 µM (LRRK2^G2019S [2]; time course at 300 nM)	T1/2 of LRRK2^G2019S degradation (LRRK2^G2019S [2]; time course at 300 nM)
CNc1nc(Nc2ccc(C(=O)N3CCN(CCOCCOCCSC(C)(C)[C@H](NC(=O)C4(F)CC4)C(=O)N4C[C@H](O)C[C@H]4C(=O)NCc4ccc(-c5scnc5C)cc4)CC3)cc2OC)ncc1Cl [SD75, (2S,4R)-1-((R)-3-((2-(2-(2-(4-(4-((5-chloro-4-(methylamino)pyrimidin-2-yl)amino)-3-methoxybenzoyl)piperazin-1-yl)ethoxy)ethoxy)ethyl)thio)-2-(1-fluorocyclopropane-1-carboxamido)-3-methylbutanoyl)-4-hydroxy-N-(4-(4-methylthiazol-5-yl)benzyl)pyrrolidine-2-carboxamide]	43%	1.1 h	1100 nM				
CNc1nc(Nc2ccc(C(=O)N3CCN(C[C@H]4CC[C@@H](CSC(C)(C)[C@H](NC(=O)C5(F)CC5)C(=O)N5C[C@H](O)CC5C(=O)NCc5ccc(-c6scnc6C)cc5)CC4)CC3)cc2OC)ncc1Cl (stereo partly drawn) [XL01134]			1100 nM	7 nM	78%	82%	1.4 h
CNc1nc(Nc2ccc(C(=O)N3CCN(C[C@H]4CC[C@H](CSC(C)(C)[C@H](NC(=O)C5(F)CC5)C(=O)N5C[C@H](O)CC5C(=O)NCc5ccc(-c6scnc6C)cc5)CC4)CC3)cc2OC)ncc1Cl (stereo partly drawn) [XL01126, (2S,4R)-1-((R)-3-((((1R,4R)-4-((4-(4-((5-chloro-4-(methylamino)pyrimidin-2-yl)amino)-3-methoxybenzoyl)piperazin-1-yl)methyl)cyclohexyl)methyl)thio)-2-(1-fluorocyclopropane-1-carboxamido)-3-methylbutanoyl)-4-hydroxy-N-(4-(4-methylthiazol-5-yl)benzyl)pyrrolidine-2-carboxamide]			2000 nM	14 nM	80-90%		0.6 h

— patent US20260001875A1, “AMINOPYRIMIDINYL DERIVATIVES FOR THE TREATMENT OF PARKINSON'S DISEASE” (UNIVERSITY OF DUNDEE, priority 2022, published 2026)
